Like-named read-outs stand apart in the source and are kept apart here.
Key:
Caspase-1 activity = Caspase-1 activity in human monocyte-derived macrophages, LPS/nigericin stimulation; format: cell-based; settings: Macrophage, 24 h pre-treatment, LPS 3 h then 10 μM nigericin 1 h, read-out: Caspase-1 IC50 (NIG)
Description: (§1) Human monocytes were enriched and isolated from a buffy coat of healthy donor whole blood with a RosetteSep™ Human Monocyte Enrichment Cocktail (Cat.No. 15068, StemCell) and Ficoll-Plaque PLUS (Cat.No. H8889, Sigma). Monocytes were differentiated into macrophages by treatment with 100 ng/mL M-CSF for 6 days at 37° C., 5% CO2. Differentiated macrophages were seeded overnight (50,000 cells/well) in 100 µL of medium in a 96-well, white-bottom plate at 37° C., 5% CO2. Cells were treated with a concentration range of MGD for 24 hours prior to stimulation with nigericin. Macrophages were primed with […] LPS for 3 h followed by 1 h stimulation with 10 μM nigericin. Media of stimulated macrophages were collected and assayed for caspase 1 activity directly (Promega G9951), according to manufacturer's instructions. For IL-1β release assay, media of stimulated macrophages were collected and stored at −20° C., then thawed at 4° C. before assaying for IL-1β activity (Promega W6011), according to manufacturer's instructions.

IL-1β release = IL-1β release in human monocyte-derived macrophages, LPS/nigericin stimulation; format: cell-based; settings: Macrophage, 24 h pre-treatment, LPS 3 h then 10 μM nigericin 1 h, read-out: IL-1b IC50 (NIG)
Description: as §1

NEK7 = NEK7 (Homo sapiens (Human), UniProt Q8TDX7+Q96SW2); test: NEK7 NanoBiT degradation assay in Cal51 NEK7 NanoBiT cell line; format: cell-based; settings: Cal51 NEK7 NanoBiT cells, 24 hours; for Dmax: CAL-51
In short: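 EC50 comes from a 4-parameter fit of control-normalized luminescence. The luminescence reports HiBiT-NEK7 (endogenous knock-in) complemented by stably expressed LgBiT in Cal51 cells after 24 h compound exposure at 37 °C. Final concentrations ran 1 μM to 0.05 nM, with Endurazine substrate present in the medium throughout.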

CRBN-DDB1 = CRBN-DDB1 (Homo sapiens (Human), UniProt Q96SW2); test: Compound binding to CRBN by HTRF assay
In short: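 Ki calculated via Cheng-Prusoff from geometric-mean EC50 values, after normalizing the HTRF ratio to lenalidomide (active) and DMSO (neutral) controls. Compounds (11 points, 1:3 steps) incubated 30 min at ambient temperature with CRBN-DDB1 2.5 nM, anti-His Tb cryptate and Cy5-thalidomide tracer 100 nM.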

[1] = NEK7 degradation, read-out: NanoBiT Dmax
[2] = NEK7 degradation, read-out: NanoBiT DC50

Sequence of NEK7 (Q8TDX7 whole entry): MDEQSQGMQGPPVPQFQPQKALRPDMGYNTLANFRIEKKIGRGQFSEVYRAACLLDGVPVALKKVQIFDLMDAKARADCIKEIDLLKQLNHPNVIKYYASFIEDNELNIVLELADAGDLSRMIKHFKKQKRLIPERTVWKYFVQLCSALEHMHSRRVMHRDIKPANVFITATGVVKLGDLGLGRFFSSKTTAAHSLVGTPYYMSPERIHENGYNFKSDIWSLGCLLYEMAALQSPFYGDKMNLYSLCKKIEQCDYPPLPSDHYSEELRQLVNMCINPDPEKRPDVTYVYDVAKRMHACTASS
Sequence of NEK7 (Q96SW2 whole entry): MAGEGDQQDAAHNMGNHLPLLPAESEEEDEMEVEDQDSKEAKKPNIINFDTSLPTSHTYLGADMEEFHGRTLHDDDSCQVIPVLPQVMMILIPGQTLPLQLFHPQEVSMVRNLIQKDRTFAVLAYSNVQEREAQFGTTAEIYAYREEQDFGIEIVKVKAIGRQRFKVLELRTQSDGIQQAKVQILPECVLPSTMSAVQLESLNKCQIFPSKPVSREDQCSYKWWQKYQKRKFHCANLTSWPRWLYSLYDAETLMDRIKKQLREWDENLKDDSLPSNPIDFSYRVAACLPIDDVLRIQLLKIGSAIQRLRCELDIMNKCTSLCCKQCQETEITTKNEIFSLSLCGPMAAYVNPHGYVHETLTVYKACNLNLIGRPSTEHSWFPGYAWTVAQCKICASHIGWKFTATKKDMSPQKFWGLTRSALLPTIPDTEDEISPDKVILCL
Sequence of NEK7 (Q16531 2-1140 partner): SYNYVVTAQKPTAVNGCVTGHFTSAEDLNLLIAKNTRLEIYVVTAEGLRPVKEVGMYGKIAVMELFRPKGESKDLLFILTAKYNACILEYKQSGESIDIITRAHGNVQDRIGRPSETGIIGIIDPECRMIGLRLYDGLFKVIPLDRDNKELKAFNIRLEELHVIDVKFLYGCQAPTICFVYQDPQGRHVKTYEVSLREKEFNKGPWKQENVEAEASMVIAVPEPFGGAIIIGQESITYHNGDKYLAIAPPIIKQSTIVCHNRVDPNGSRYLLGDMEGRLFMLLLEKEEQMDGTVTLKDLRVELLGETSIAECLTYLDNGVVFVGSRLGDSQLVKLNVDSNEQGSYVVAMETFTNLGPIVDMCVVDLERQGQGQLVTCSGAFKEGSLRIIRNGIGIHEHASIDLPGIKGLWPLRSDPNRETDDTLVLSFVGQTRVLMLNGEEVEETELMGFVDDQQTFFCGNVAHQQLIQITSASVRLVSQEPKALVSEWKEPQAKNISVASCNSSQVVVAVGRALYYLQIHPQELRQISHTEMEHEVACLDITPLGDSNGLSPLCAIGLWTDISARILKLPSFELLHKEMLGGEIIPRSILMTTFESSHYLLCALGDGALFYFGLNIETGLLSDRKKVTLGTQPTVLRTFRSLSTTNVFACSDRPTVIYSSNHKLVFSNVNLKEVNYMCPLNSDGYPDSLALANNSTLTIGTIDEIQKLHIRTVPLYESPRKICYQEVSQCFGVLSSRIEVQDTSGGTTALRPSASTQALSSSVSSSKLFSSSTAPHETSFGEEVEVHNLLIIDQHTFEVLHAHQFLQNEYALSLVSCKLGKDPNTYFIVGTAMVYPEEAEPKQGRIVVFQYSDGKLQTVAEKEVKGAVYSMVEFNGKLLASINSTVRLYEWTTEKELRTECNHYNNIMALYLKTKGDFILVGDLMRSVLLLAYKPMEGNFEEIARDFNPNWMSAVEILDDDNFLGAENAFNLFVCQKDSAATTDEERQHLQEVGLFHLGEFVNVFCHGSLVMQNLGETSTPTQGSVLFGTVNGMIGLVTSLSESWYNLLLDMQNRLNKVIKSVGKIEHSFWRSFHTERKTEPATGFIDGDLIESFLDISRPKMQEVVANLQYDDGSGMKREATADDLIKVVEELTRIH
Sequence of CRBN-DDB1 (Q96SW2 whole entry): as the sequence (Q96SW2 whole entry) above
Sequence of CRBN-DDB1 (Q16531 whole entry partner): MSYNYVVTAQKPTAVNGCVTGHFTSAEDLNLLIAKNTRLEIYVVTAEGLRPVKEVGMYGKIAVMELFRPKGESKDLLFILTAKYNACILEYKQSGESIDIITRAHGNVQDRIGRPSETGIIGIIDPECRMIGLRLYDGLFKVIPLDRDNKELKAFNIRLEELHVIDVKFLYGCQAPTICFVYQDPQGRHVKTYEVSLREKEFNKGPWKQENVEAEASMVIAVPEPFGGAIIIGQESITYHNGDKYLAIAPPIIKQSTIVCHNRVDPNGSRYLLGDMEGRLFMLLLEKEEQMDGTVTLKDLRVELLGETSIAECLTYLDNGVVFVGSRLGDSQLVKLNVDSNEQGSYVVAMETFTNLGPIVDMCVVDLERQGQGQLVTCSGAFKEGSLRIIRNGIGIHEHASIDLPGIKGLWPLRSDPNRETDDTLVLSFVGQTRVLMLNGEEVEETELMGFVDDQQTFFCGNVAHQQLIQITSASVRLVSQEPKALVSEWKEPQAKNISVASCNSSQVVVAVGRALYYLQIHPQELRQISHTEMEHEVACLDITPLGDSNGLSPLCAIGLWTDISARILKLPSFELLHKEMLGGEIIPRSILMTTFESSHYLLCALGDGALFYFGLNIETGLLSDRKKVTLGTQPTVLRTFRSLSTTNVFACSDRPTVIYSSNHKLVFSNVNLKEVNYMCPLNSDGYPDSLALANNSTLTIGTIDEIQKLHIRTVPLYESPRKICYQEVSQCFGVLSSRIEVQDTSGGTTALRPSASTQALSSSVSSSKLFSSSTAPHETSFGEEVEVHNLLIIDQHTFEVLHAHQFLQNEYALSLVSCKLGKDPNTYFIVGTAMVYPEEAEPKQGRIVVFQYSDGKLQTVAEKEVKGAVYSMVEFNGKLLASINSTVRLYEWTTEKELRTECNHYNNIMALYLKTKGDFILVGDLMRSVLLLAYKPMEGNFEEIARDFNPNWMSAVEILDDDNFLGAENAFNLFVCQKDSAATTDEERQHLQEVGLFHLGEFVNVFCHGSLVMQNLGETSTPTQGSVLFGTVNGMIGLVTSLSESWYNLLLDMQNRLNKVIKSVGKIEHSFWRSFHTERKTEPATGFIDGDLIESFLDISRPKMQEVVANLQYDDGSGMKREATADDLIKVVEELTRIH

Row | IC50 (Caspase-1 activity) [nM] | IC50 (IL-1β release) [nM] | Dmax (NEK7; read-out: NEK7 NanoBiT Dmax) [%] | Dmax (NEK7; [1]) [%] | DC50 (NEK7; read-out: NEK7 NanoBiT DC50) [nM] | DC50 (NEK7; [2]) [nM] | EC50 (CRBN-DDB1) [nM] | EC50 (CRBN-DDB1; HTRF class, Cereblon binding) [nM] | Compound
1 | 1.85 | 1.95 | 89 | > 75 | 9 | ≤ 100 | 110 | 100 to 1000 | Cc1cnc(C(C)(C)C(=O)NCc2cc(Cl)c(C3CCC(=O)NC3=O)c(Cl)c2)nc1 (stereo not shown) [Compound 14, N-(3,5-dichloro-4-(2,6-dioxopiperidin-3-yl)benzyl)-2-methyl-2-(5-methylpyrimidin-2-yl)-propanamide]
2 | 0.32 | 0.56 | 95 | > 75 | 4 | ≤ 100 | 120 | 100 to 1000 | CC(C)(C(=O)NCc1cc(Cl)c(C2CCC(=O)NC2=O)c(Cl)c1)c1ncc(C#N)cn1 (stereo not shown) [Compound 16, 2-(5-cyanopyrimidin-2-yl)-N-(3,5-dichloro-4-(2,6-dioxopiperidin-3-yl)benzyl)-2-methyl-propanamide]

Source: patent publication US20250243180A1, “TARGETED PROTEIN DEGRADATION” (Monte Rosa Therapeutics AG, priority 2023, published 2025)
